≈ marks a conversion by molar mass, not a printed value.

Data set [1] can be described thus: In vivo pharmacokinetics, blood level in mice after administration. To be noted: mouse, 10 mg/kg, 3 hr after administration. On the procedure: The in vivo pharmacokinetics was also investigated in mice by measuring the blood level at 3 hr after administrating a test compound to a mouse (10 mg/kg).
(§1) In the assay, as a control compound, 7β-[(Z)-2-(2-amino-4-thiazolyl)-2-hydroxyiminoacetamido]-3-(1,2,3-triazol-4-yl)thiomethylthio-3-cephem-4-carboxylic acid (a thiomethylthio cephalosporin disclosed in U.S. patent application Ser. No. 07/729,413, filed on Jul. 12, 1991, now U.S. Pat. No. 5,214,037, and EPO Application Publication No. 0 467 647 A2) was used.
(§2) In the tables, Compound A is a compound of the invention and Compound B is a control compound.

Another data set deals with E. coli EC-14. In words: In vitro antibacterial activity (MIC, two-fold agar dilution) against E. coli EC-14. The conditions noted are these: Escherichia coli, EC14. Format: cell-based. On the procedure: (§3) The in vitro antibacterial activity of a compound as prepared in the foregoing Example was evaluated as follows. A compound to be tested was dissolved in 0.01N aqueous solution of sodium hydrogen carbonate and the solution was applied to an agar plate and the minimal inhibitory concentration (MIC) against each bacterium was measured by two-fold dilution method according to the standard method of the Japan Society of Chemotherapy.
as §1, §2
In general terms: Agar dilution tests growth on a series of plates holding different concentrations.

The nature of data set [2]: Binding ability to plasma proteins. Format: in vitro ADME. To be noted: tentative value.
Data set [3] deals with S. maecescense ATCC 13880. In words: In vitro antibacterial activity (MIC, two-fold agar dilution) against S. marcescense ATCC 13880. It is filed as cell-based, Seratia marcescense. As to the method:
as §3, §1, §2

The test system of another data set is E. coli SR73. Kind of data set: In vitro antibacterial activity (MIC, two-fold agar dilution) against E. coli SR73. It is filed as cell-based. The conditions noted are these: Escherichia coli. On the procedure:
as §3, §1, §2

In a further data set the test system is E. coli SR377. In words: In vitro antibacterial activity (MIC, two-fold agar dilution) against E. coli SR377. To be noted: Escherichia coli. Format: cell-based. On the procedure:
as §3, §1, §2

The test system of the next data set is E. coli JC-2. Kind of data set: In vitro antibacterial activity (MIC, two-fold agar dilution) against E. coli JC-2. It is filed as cell-based. To be noted: Escherichia coli, JC2. On the procedure:
as §3, §1, §2

The subject of another data set is E. cloacae ATCC 13047. Kind of data set: In vitro antibacterial activity (MIC, two-fold agar dilution) against E. cloacae ATCC 13047. It is filed as cell-based. To be noted: Enterobacter cloacae, ATCC13047. As to the method: as §3, §1, §2
A further data set has as its system K. pneumoniae SRI. In words: In vitro antibacterial activity (MIC, two-fold agar dilution) against K. pneumoniae SRI. Format: cell-based. The conditions noted are these: Klebsiella pneumoniae. As to the method: as §3, §1, §2
Another data set concerns E. cloacae SR233. Kind of data set: In vitro antibacterial activity (MIC, two-fold agar dilution) against E. cloacae SR233. Format: cell-based. The conditions noted are these: Enterobacter cloacae. On the procedure:
as §3, §1, §2

One may read the MIC as the lowest concentration found to suppress growth. As usually defined, the fraction unbound is free concentration divided by total concentration. In data set [1], `Nc1nc(/C(=N/O)C(=O)N[C@@H]2C(=O)N3C(C(=O)O)=C(SCSc4c[nH]nn4)CC[C@H]23)cs1` [Compound A, 7β-[(Z)-2-(2-Aminothiazol-4-yl)-2-hydroxyiminoacetamido]-3-(1,2,3-triazol-4-ylthiomethylthio)-1-carba-3-cephem-4-carboxylic acid] gave a concentration at 3 h of 82000 ng/mL. The MIC against E. coli EC-14 amounted to 0.025 µg/mL (≈ 0.0503 µM); in data set [3] it was 0.2 µg/mL (≈ 0.403 µM); against E. coli SR73, 0.39 µg/mL (≈ 0.785 µM); against E. coli SR377 it was 0.2 µg/mL (≈ 0.403 µM); with E. coli JC-2 it was 0.05 µg/mL (≈ 0.101 µM); against E. cloacae ATCC 13047, 12.5 µg/mL (≈ 25.2 µM). Moreover, the MIC with K. pneumoniae SRI was determined as 0.025 µg/mL (≈ 0.0503 µM); against E. cloacae SR233, 0.1 µg/mL (≈ 0.201 µM). The fraction unbound in [2] is 0.1.
The compound `Nc1nc(/C(=N/O)C(=O)N[C@@H]2C(=O)N3C(C(=O)O)=C(SCSc4c[nH]nn4)CS[C@H]23)cs1` [Compound B, 7β-[(Z)-2-(2-amino-4-thiazolyl)-2-hydroxyiminoacetamido]-3-(1,2,3-triazol-4-yl)thiomethylthio-3-cephem-4-carboxylic acid] yielded a concentration at 3 h in data set [1] of 18000 ng/mL. Further, the minimum inhibitory concentration (MIC) against E. coli EC-14 was found to be 0.1 µg/mL (≈ 0.194 µM); in data set [3] it was 3.2 µg/mL (≈ 6.22 µM); in the data set with E. coli SR73, 1.6 µg/mL (≈ 3.11 µM); with E. coli SR377 it was 0.8 µg/mL (≈ 1.55 µM); against E. coli JC-2, 0.3 µg/mL (≈ 0.583 µM); in the data set with E. cloacae ATCC 13047, 100 µg/mL (≈ 194 µM). The MIC is 0.1 µg/mL (≈ 0.194 µM) in the data set on K. pneumoniae SRI and 0.8 µg/mL (≈ 1.55 µM) against E. cloacae SR233. The compound further had a fraction unbound in data set [2] of 0.04.

The record behind these values is patent publication US5362724A, “Thioalkylthio carbacephalosporin derivatives” (Shionogi & Co., Ltd., priority 1992, dated 1994).
